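1) Cells in 96-well plates. 2) Compound, 48 h, 5 concentrations. 3) Linear interpolation between surrounding doses. 4) Unreached endpoint = highest concentration. TGI denotes the concentration required for complete inhibition of growth.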
How the values were obtained:
Assay in all cases: DTP human tumour cell line panel, 48 h
SNB-19 CNS = system: SNB-19 CNS
TK-10 renal = system: TK-10 renal
786-0 renal = system: 786-0 renal
HOP-62 NSCLC = system: HOP-62 NSCLC
OVCAR-5 ovarian = system: OVCAR-5 ovarian
MALME-3M melanoma = system: MALME-3M melanoma
CCRF-CEM leukemia = system: CCRF-CEM leukemia
NCI-H23 lung = system: NCI-H23 lung
MDA-MB-231 breast = system: MDA-MB-231 breast
K-562 leukemia = system: K-562 leukemia
MCF7 breast = system: MCF7 breast
KM12 colon = system: KM12 colon
ACHN renal = system: ACHN renal
SN12C renal = system: SN12C renal
HCC-2998 colon = system: HCC-2998 colon
NCI/ADR-RES ovarian = system: NCI/ADR-RES ovarian
OVCAR-3 ovarian = system: OVCAR-3 ovarian
RPMI-8226 leukemia = system: RPMI-8226 leukemia
NCI-H226 lung = system: NCI-H226 lung
A498 renal = system: A498 renal
MDA-N = system: MDA-N
MDA-MB-435 = system: MDA-MB-435
HT29 colon = system: HT29 colon
HL-60(TB) leukemia = system: HL-60(TB) leukemia
LOX IMVI melanoma = system: LOX IMVI melanoma
SF-295 CNS = system: SF-295 CNS
UO-31 renal = system: UO-31 renal
RXF 393 renal = system: RXF 393 renal
M14 melanoma = system: M14 melanoma
HS 578T breast = system: HS 578T breast
HOP-92 NSCLC = system: HOP-92 NSCLC
BT-549 breast = system: BT-549 breast
T-47D breast = system: T-47D breast
OVCAR-8 ovarian = system: OVCAR-8 ovarian
SK-MEL-2 melanoma = system: SK-MEL-2 melanoma
SK-OV-3 ovarian = system: SK-OV-3 ovarian
COLO 205 colon = system: COLO 205 colon
MOLT-4 leukemia = system: MOLT-4 leukemia
U251 CNS = system: U251 CNS
NCI-H522 lung = system: NCI-H522 lung
PC-3 prostate = system: PC-3 prostate
OVCAR-4 ovarian = system: OVCAR-4 ovarian
SW-620 colon = system: SW-620 colon
NCI-H460 lung = system: NCI-H460 lung
UACC-62 melanoma = system: UACC-62 melanoma
EKVX NSCLC = system: EKVX NSCLC
HCT-116 colon = system: HCT-116 colon
SK-MEL-28 melanoma = system: SK-MEL-28 melanoma
SK-MEL-5 melanoma = system: SK-MEL-5 melanoma
HCT-15 colon = system: HCT-15 colon
A549 NSCLC = system: A549 NSCLC
IGROV1 ovarian = system: IGROV1 ovarian
CAKI-1 renal = system: CAKI-1 renal
DU-145 prostate = system: DU-145 prostate
SF-268 CNS = system: SF-268 CNS
UACC-257 melanoma = system: UACC-257 melanoma
SF-539 CNS = system: SF-539 CNS
SNB-75 CNS = system: SNB-75 CNS
SR leukemia = system: SR leukemia

With `Cc1nnc2n1N=C(c1cc(F)c(Cl)cc1Cl)/C(=C/c1ccc(Cl)cc1)S2` the TGI (SNB-19 CNS) was over 100 µM, the TGI (TK-10 renal) was over 100 µM and the TGI (786-0 renal) was 36.8 µM. For the same compound, the TGI (HOP-62 NSCLC) was 31.2 µM, the TGI (OVCAR-5 ovarian) was 28 µM and the TGI (MALME-3M melanoma) was 58.9 µM. For the same compound, the TGI (CCRF-CEM leukemia) was over 100 µM, the TGI (NCI-H23 lung) was 48.8 µM and the TGI (MDA-MB-231 breast) was 47.6 µM. The TGI (K-562 leukemia) was over 100 µM, the TGI (MCF7 breast) was 50.8 µM and the TGI (KM12 colon) was 25.4 µM. It also gave a TGI (ACHN renal) of 41.7 µM, a TGI (SN12C renal) of 36 µM and a TGI (HCC-2998 colon) of 28.5 µM. For the same compound, the TGI (NCI/ADR-RES ovarian) was 34.2 µM, the TGI (OVCAR-3 ovarian) was 25.2 µM and the TGI (RPMI-8226 leukemia) was 44 µM. It also gave a TGI (NCI-H226 lung) of 63.4 µM, a TGI (A498 renal) of 41.3 µM and a TGI (MDA-N) of 35.4 µM. The TGI (MDA-MB-435) was 29.1 µM, the TGI (HT29 colon) was 34.5 µM and the TGI (HL-60(TB) leukemia) was over 100 µM. It also gave a TGI (LOX IMVI melanoma) of 28.3 µM, a TGI (SF-295 CNS) of 35.5 µM and a TGI (UO-31 renal) of 27.4 µM. It also gave a TGI (RXF 393 renal) of 40.5 µM, a TGI (M14 melanoma) of 43 µM and a TGI (HS 578T breast) of over 100 µM. The TGI (HOP-92 NSCLC) was 60.1 µM, the TGI (BT-549 breast) was 49 µM and the TGI (T-47D breast) was over 100 µM. It also gave a TGI (OVCAR-8 ovarian) of over 100 µM, a TGI (SK-MEL-2 melanoma) of 26.2 µM and a TGI (SK-OV-3 ovarian) of over 100 µM. The TGI (COLO 205 colon) was over 100 µM, the TGI (MOLT-4 leukemia) was over 100 µM and the TGI (U251 CNS) was 38.5 µM. The TGI (NCI-H522 lung) was over 100 µM, the TGI (PC-3 prostate) was 80.6 µM and the TGI (OVCAR-4 ovarian) was 33.3 µM. It also gave a TGI (SW-620 colon) of over 100 µM, a TGI (NCI-H460 lung) of 38.9 µM and a TGI (UACC-62 melanoma) of 52.8 µM. It also gave a TGI (EKVX NSCLC) of 28.6 µM, a TGI (HCT-116 colon) of 21 µM and a TGI (SK-MEL-28 melanoma) of over 100 µM. The TGI (SK-MEL-5 melanoma) was 41.3 µM, the TGI (HCT-15 colon) was 35.2 µM and the TGI (A549 NSCLC) was 99.6 µM. For the same compound, the TGI (IGROV1 ovarian) was 53.9 µM, the TGI (CAKI-1 renal) was 41.4 µM and the TGI (DU-145 prostate) was 48.6 µM. It also gave a TGI (SF-268 CNS) of over 100 µM, a TGI (UACC-257 melanoma) of 44.6 µM and a TGI (SF-539 CNS) of 92.3 µM.

`O=C(/C=C/c1ccc(O)c([N+](=O)[O-])c1)CC(=O)/C=C/c1ccc(O)c([N+](=O)[O-])c1` gave a TGI (SNB-19 CNS) of over 100 µM, a TGI (TK-10 renal) of over 100 µM and a TGI (786-0 renal) of over 100 µM. The TGI (HOP-62 NSCLC) was over 100 µM, the TGI (OVCAR-5 ovarian) was over 100 µM and the TGI (CCRF-CEM leukemia) was over 100 µM. It also gave a TGI (NCI-H23 lung) of over 100 µM, a TGI (MDA-MB-231 breast) of 68 µM and a TGI (MCF7 breast) of over 100 µM. For the same compound, the TGI (KM12 colon) was 97.6 µM, the TGI (ACHN renal) was over 100 µM and the TGI (SN12C renal) was over 100 µM. The TGI (NCI/ADR-RES ovarian) was over 100 µM, the TGI (OVCAR-3 ovarian) was over 100 µM and the TGI (RPMI-8226 leukemia) was 34.5 µM. For the same compound, the TGI (NCI-H226 lung) was over 100 µM, the TGI (MDA-N) was over 100 µM and the TGI (MDA-MB-435) was over 100 µM. The TGI (HT29 colon) was over 100 µM, the TGI (HL-60(TB) leukemia) was 44.6 µM and the TGI (LOX IMVI melanoma) was 27.5 µM. It also gave a TGI (SF-295 CNS) of over 100 µM, a TGI (UO-31 renal) of over 100 µM and a TGI (RXF 393 renal) of over 100 µM. The TGI (M14 melanoma) was over 100 µM, the TGI (HS 578T breast) was over 100 µM and the TGI (BT-549 breast) was over 100 µM. It also gave a TGI (OVCAR-8 ovarian) of 39.6 µM, a TGI (SK-MEL-2 melanoma) of over 100 µM and a TGI (SK-OV-3 ovarian) of over 100 µM. For the same compound, the TGI (COLO 205 colon) was over 100 µM, the TGI (U251 CNS) was 55.3 µM and the TGI (NCI-H522 lung) was over 100 µM. The TGI (PC-3 prostate) was over 100 µM, the TGI (OVCAR-4 ovarian) was over 100 µM and the TGI (SW-620 colon) was over 100 µM. The TGI (NCI-H460 lung) was over 100 µM, the TGI (SNB-75 CNS) was over 100 µM and the TGI (UACC-62 melanoma) was over 100 µM. It also gave a TGI (EKVX NSCLC) of over 100 µM, a TGI (HCT-116 colon) of over 100 µM and a TGI (SK-MEL-28 melanoma) of over 100 µM. It also gave a TGI (SK-MEL-5 melanoma) of over 100 µM, a TGI (HCT-15 colon) of over 100 µM and a TGI (A549 NSCLC) of over 100 µM. It also gave a TGI (IGROV1 ovarian) of 76.4 µM, a TGI (DU-145 prostate) of over 100 µM and a TGI (SF-268 CNS) of over 100 µM. It also gave a TGI (UACC-257 melanoma) of over 100 µM and a TGI (SF-539 CNS) of over 100 µM.

Work on `CCOC(=O)CNC(=O)C(CSCc1ccc(Br)cc1)NC(=O)CCC(N)C(=O)OCC` (centres undefined) yielded a TGI (SNB-19 CNS) of over 50 µM, a TGI (786-0 renal) of over 50 µM and a TGI (HOP-62 NSCLC) of over 50 µM. The TGI (OVCAR-5 ovarian) was over 50 µM, the TGI (CCRF-CEM leukemia) was over 50 µM and the TGI (NCI-H23 lung) was over 50 µM. For the same compound, the TGI (MDA-MB-231 breast) was over 50 µM, the TGI (K-562 leukemia) was over 50 µM and the TGI (MCF7 breast) was over 50 µM. The TGI (KM12 colon) was over 50 µM, the TGI (ACHN renal) was over 50 µM and the TGI (SN12C renal) was over 50 µM. It also gave a TGI (HCC-2998 colon) of over 50 µM, a TGI (NCI/ADR-RES ovarian) of over 50 µM and a TGI (SR leukemia) of over 50 µM. The TGI (OVCAR-3 ovarian) was over 50 µM, the TGI (RPMI-8226 leukemia) was over 50 µM and the TGI (MDA-N) was over 50 µM. It also gave a TGI (MDA-MB-435) of over 50 µM, a TGI (HT29 colon) of over 50 µM and a TGI (SF-295 CNS) of over 50 µM. For the same compound, the TGI (UO-31 renal) was over 50 µM, the TGI (RXF 393 renal) was over 50 µM and the TGI (M14 melanoma) was over 50 µM. The TGI (HS 578T breast) was over 50 µM, the TGI (HOP-92 NSCLC) was over 50 µM and the TGI (BT-549 breast) was over 50 µM. For the same compound, the TGI (OVCAR-8 ovarian) was over 50 µM, the TGI (SK-MEL-2 melanoma) was over 50 µM and the TGI (SK-OV-3 ovarian) was over 50 µM. It also gave a TGI (COLO 205 colon) of over 50 µM, a TGI (MOLT-4 leukemia) of over 50 µM and a TGI (U251 CNS) of over 50 µM. The TGI (NCI-H522 lung) was over 50 µM, the TGI (PC-3 prostate) was over 50 µM and the TGI (OVCAR-4 ovarian) was over 50 µM. For the same compound, the TGI (SW-620 colon) was over 50 µM, the TGI (NCI-H460 lung) was over 50 µM and the TGI (SNB-75 CNS) was over 50 µM. For the same compound, the TGI (UACC-62 melanoma) was over 50 µM, the TGI (EKVX NSCLC) was over 50 µM and the TGI (HCT-116 colon) was over 50 µM. It also gave a TGI (SK-MEL-28 melanoma) of over 50 µM, a TGI (SK-MEL-5 melanoma) of over 50 µM and a TGI (HCT-15 colon) of over 50 µM. The TGI (A549 NSCLC) was over 50 µM, the TGI (IGROV1 ovarian) was over 50 µM and the TGI (CAKI-1 renal) was over 50 µM. It also gave a TGI (DU-145 prostate) of over 50 µM, a TGI (SF-268 CNS) of over 50 µM and a TGI (UACC-257 melanoma) of over 50 µM. It also gave a TGI (SF-539 CNS) of over 50 µM.

Reference: PubChem BioAssay (NCI)
